US7364874B2, “Mediucm for detecting Van A and Van B vancomycin-resistant entercocci and method of using the same” (priority 2001, dated 2008)
In brackets after ≈: the same amount, converted by molar mass. Read-outs that look alike come from different tables or passages of the source.

Experiments:
[1] = system: Van E VRE; conditions: cited from earlier work
[2] = system: Van A VRE; experiment: Test Example 2: vancomycin MIC changes when D-lactic acid (DL-sodium lactate) is added (checkerboard method); type: cell-based, E. faecium
[3] = system: Van B VRE; experiment: microbe, parasite or virus in culture; type: cell-based, E. faecium, E. faecalis; conditions: Enterococcus, read-out: vancomycin MIC
[4] = system: Van G VRE; conditions: cited from earlier work
[5] = system: Van C VRE; conditions: cited from earlier work
[6] = system: Van C type, Enterococcus gallinarum; experiment: Test Example 2: vancomycin MIC changes when D-lactic acid (DL-sodium lactate) is added (checkerboard method); type: cell-based
[7] = system: Van C type, Enterococcus gallinarum; experiment: microbe, parasite or virus in culture; conditions: read-out: vancomycin MIC, with addition of D-cycloserine, all strains of the group
[8] = system: Van B VRE; experiment: Test Example 2: vancomycin MIC changes when D-lactic acid (DL-sodium lactate) is added (checkerboard method); type: cell-based, E. faecium, E. faecalis
[9] = system: Van D VRE; conditions: cited from earlier work
[10] = system: Van A VRE; experiment: microbe, parasite or virus in culture; type: cell-based, E. faecium; conditions: Enterococcus, read-out: vancomycin MIC
[11] = system: Van C type, Enterococcus casseliflavus; experiment: microbe, parasite or virus in culture; conditions: read-out: vancomycin MIC, with addition of D-cycloserine, all strains of the group
[12] = system: Van C type, Enterococcus casseliflavus; experiment: Test Example 2: vancomycin MIC changes when D-lactic acid (DL-sodium lactate) is added (checkerboard method); type: cell-based
[13] = system: Enterococcus avium that does not carry vancomycine resistance genes; experiment: as above; type: cell-based; conditions: DL-sodium lactate 0.025-[…]
[14] = system: Enterococcus faecium that does not carry vancomycine resistance genes; experiment: as above; type: cell-based; conditions: DL-sodium lactate 0.025-[…]
[15] = system: Enterococcus faecalis that does not carry vancomycine resistance genes (incl. ATCC29212); experiment: as above; type: cell-based; conditions: DL-sodium lactate 0.025-[…]
[16] = system: Van B VRE; conditions: carries van B gene; cited from earlier work
[17] = system: Van A VRE; conditions: carries van A gene; cited from earlier work
[18] = Enterococcus, VRE, read-out: vancomycin MIC

## CN[C@H](CC(C)C)C(=O)N[C@H]1C(=O)N[C@@H](CC(N)=O)C(=O)N[C@H]2C(=O)N[C@H]3C(=O)N[C@H](C(=O)N[C@H](C(=O)O)c4cc(O)cc(O)c4-c4cc3ccc4O)[C@H](O)c3ccc(c(Cl)c3)Oc3cc2cc(c3O[C@@H]2O[C@H](CO)[C@@H](O)[C@H](O)[C@H]2O[C@H]2C[C@](C)(N)[C@H](O)[C@H](C)O2)Oc2ccc(cc2Cl)[C@H]1O [vancomycin]
[1]
  minimum inhibitory concentration (MIC): 16 µg/mL (≈ 11 µM)
[2]; [18]
  MIC: > 32 µg/mL
[3]
  MIC: > 32 µg/mL
[4]
  minimum inhibitory concentration (MIC): 12 to 16 µg/mL
[5]
  minimum inhibitory concentration (MIC): 2 to 32 µg/mL
[6]; Enterococcus gallinarum, GALLINARUM, read-out: vancomycin MIC, with addition of DL-sodium lactate, all strains of the group
  MIC: < 32 µg/mL
[7]
  MIC: < 32 µg/mL
[8]; [18]
  MIC: > 32 µg/mL
[9]
  minimum inhibitory concentration (MIC): 64 to 1024 µg/mL
[10]
  MIC: > 32 µg/mL
[11]
  MIC: < 32 µg/mL
[12]; Enterococcus casseliflavus, read-out: vancomycin MIC, with addition of DL-sodium lactate, all strains of the group
  MIC: < 32 µg/mL

## CC(O)C(=O)[O-].[Na+] (racemic) [DL-sodium lactate]
[2]; DL-sodium lactate 0.025-[…], 5 strains
  effect of the addition of DL-sodium lactate on the vancomycin MIC: increased the vancomycin MIC or maintained the vancomycin MIC as high as more than 512 μg/ml
[13]
  effect of the addition of DL-sodium lactate on the vancomycin MIC: did not change the vancomycin MIC
[14]
  effect of the addition of DL-sodium lactate on the vancomycin MIC: did not change the vancomycin MIC
[15]
  effect of the addition of DL-sodium lactate on the vancomycin MIC: did not change the vancomycin MIC
[6]; DL-sodium lactate 0.025-[…]
  effect of the addition of DL-sodium lactate on the vancomycin MIC: The addition of DL-sodium lactate did not change the vancomycin
[8]; for increasing the vancomycin MIC
  optimum concentration of addition of DL-sodium lactate: 0.2 mol/L
[8]; growth worse in line with the added amount
  concentration of DL-sodium lactate at which the organisms tend to grow worse: more than 0.4 mol/l
[12]; DL-sodium lactate 0.025-[…]
  effect of the addition of DL-sodium lactate on the vancomycin MIC: The addition of DL-sodium lactate did not change the vancomycin

## teicoplanin
[1]; carries van E gene
  minimum inhibitory concentration (MIC): 0.5 µg/mL
[4]; carries van G gene
  minimum inhibitory concentration (MIC): 0.5 µg/mL
[5]; carries van C gene
  minimum inhibitory concentration (MIC): 0.5 to 1 µg/mL
[16]
  minimum inhibitory concentration (MIC): 0.5 to 1 µg/mL
[17]
  minimum inhibitory concentration (MIC): 16 to 512 µg/mL
[9]; carries van D gene
  minimum inhibitory concentration (MIC): 4 to 1024 µg/mL
